How the values were obtained:
[1] = tested on: Notch-processing activity of the γ-secretase-complex; test: Notch cell-free assay (NICD production from recombinant Notch substrate N99); type: biochemical; conditions: 1 μM test compound; 0.3-0.5 μM mouse Notch substrate; enriched gamma secretase; 37° C., 6 to 22 h; western blot; control GSI concentration not given
Description: The Notch transmembrane domain is cleaved by gamma secretase to release Notch Intracellular C-terminal Domain (NICD).
To monitor the effect of compounds on NICD production, a recombinant Notch substrate (N99) was prepared. The Notch substrate, comprised of mouse Notch fragment (V1711-E1809), an N-terminal methionine and a C-terminal FLAG sequence ([…]), was expressed in E. coli and purified on a column containing an anti-FLAG M2 affinity matrix.
A typical Notch cell-free assay consisted of 0.3-0.5 μM Notch substrate, an enriched preparation of gamma secretase and 1 μM of a test compound (compounds 16, 18 and 106 of the present invention). Controls included a gamma secretase inhibitor (GSI), such as (2S)—N-[2-(3,5-difluorophenyl)acetyl]-L-alanyl-2-phenyl-glycine 1,1-dimethylethyl ester (DAPT) or (2S)-2-hydroxy-3-methyl-N-[(1S)-1-methyl-2-oxo-2-[[(1S)-2,3,4,5-tetrahydro-3-methyl-2-oxo-1H-3-benzazepin-1-yl]amino]ethyl]-butanamide (Semagacestat), and DMSO, the final concentration of DMSO being 1%. Recombinant Notch substrate was pre-treated with 17 μM DTT (1,4-dithiothreitol) and 0.02% SDS (Sodium Dodecyl Sulfate) and heated at 65° C. for 10 min. The mixture of substrate, gamma secretase and compound/DMSO was incubated at 37° C. for 6 to 22 hours (h). Six-hour incubation was sufficient to produce the maximal amount of NICD and the cleaved product remained stable for an additional 16 H. Reaction products were processed for SDS PAGE (Sodium Dodecyl Sulfate-Poly Acrylamide Gel Electrophoresis) and western blotting. Blots were probed with an anti-Flag M2 antibody, followed by LI-COR infrared secondary antibody, and analyzed with the Odyssey Infrared Imaging System (LI-COR® Biosciences).

mouse Notch2 = test: Notch cell-based assay (N2-CHO/DL-CHO co-culture, Dual-Glo luciferase, NICD production); conditions: N2-CHO/DL-CHO co-culture 16 H; five-point curve 3 μM-0.3 nM
Description: The Notch cell-based assay was based on the interaction of Notch and its ligand in a co-culture system and utilized the Dual-Glo Luciferase Assay System (Promega) to monitor NICD production. Two stable cell lines, N2-CHO and DL-CHO, were established to express full-length mouse Notch2 and Delta respectively. Cells that expressed mouse Notch were also transfected with two plasmids, pTP1-Luc and pCMV-RLuc, to express firefly and Renilla luciferase. Expression of firefly luciferase was under the control of TP1 promoter that responded to NICD activation.
N2-CHO cells were seeded at 1×10^5/well in 24-well plates the day before transfection. On the second day, cells were double transfected with 3 μg/well pTP1-Luc (expressing firefly luciferase) and 0.3 ng/well pCMV-RLuc (expressing Renilla luciferase). After 6 H incubation, transfected N2-CHO cells were washed and DL-CHO cells (2×10^5 cells/well) were added.
Compounds were pre-mixed with DL-CHO cell suspension in a five-point curve. Typically, compound treatment was performed in duplicate with a serial 1:10 dilution (3 μM-0.3 nM) in DMSO. The final concentration of DMSO in a given culture was 1%. Controls included non-transfected cells and transfected cells treated with a GSI or DMSO only. Luciferase assays were performed after 16 H co-culture and compound treatment.
The luciferase assay was carried out according to manufacture's instructions. Briefly, cells were washed with PBS (Phosphate Buffered Saline), lysed with Passive Lysis Buffer (Promega), and incubated at room temperature for 20 min. Lysates were mixed with Dual-Glo Luciferase Reagent and the firefly luciferase activity was measured by reading the luminescence signal in the EnVision 2101 Multilabel reader. Dual-Glo Stop & Glo Reagent was then added to each well and the Renilla luciferase signal was measured.

SMILES | effect on the Notch-processing activity of the γ-secretase-complex (production of NICD) [1] | average IC50 values from the Notch cell-based assay (luciferase assay readouts) (mouse Notch2)
COc1cc(Nc2cccc3c2nc(-c2ccc(F)cc2)n3C)ccc1-c1cnc(C)o1 [Compound 16] | did not show an effect | 
Cc1ncc(-c2ccc(Nc3cccc4c3nc(-c3ccc(F)cc3)n4C(C)C)cn2)o1 [Compound 18] | did not show an effect | non-inhibitory

From US8946426B2, “Substituted bicyclic heterocyclic compounds as gamma secretase modulators” (Janssen Pharmaceuticals, Inc., priority 2009, dated 2015)
